Reference: US20230357447A1, “TUMOR ACTIVATED MULTISPECIFIC ANTIBODIES FOR TARGETING CD28 AND PD-L1 AND METHODS OF USE THEREOF” (Janux Therapeutics, Inc., priority 2022, published 2023)

Test system: anti-CD28 scFv (SEQ ID NO: 9)
Assay: Octet bio-layer interferometry kinetic binding of anti-CD28 scFv to peptides
Design: species or system human
Settings: Octet RED96; biotinylated peptide loaded on streptavidin biosensor; anti-CD28 scFv in solution; 1:1 binding model
Method: (§1) Association and dissociation signals were recorded in real time and analyzed using a 1:1 binding model within the instrument software. Analysis using a 1:1 binding model enabled the calculation of the on and off rate constants as well as affinity, KD.
as §1

Compound	kdis [s⁻¹]
CC[C@H](C)[C@@H]1NC(=O)[C@@H]2CCCN2C(=O)[C@@H](NC(=O)[C@H](Cc2c[nH]c3ccccc23)NC(=O)[C@H](CC(=O)O)NC(=O)[C@@H](N)CCSC)CSSC[C@@H](C(=O)N[C@@H](Cc2ccccc2)C(=O)N[C@@H](Cc2ccccc2)C(=O)O)NC(=O)[C@H](CCC(=O)O)NC(=O)[C@H](CC(N)=O)NC(=O)[C@H](Cc2c[nH]c3ccccc23)NC(=O)[C@H](CC(C)C)NC(=O)[C@H](CC(=O)O)NC1=O [Peptide-31]	0.00369
CC[C@H](C)[C@@H]1NC(=O)[C@@H]2CCCN2C(=O)[C@@H](NC(=O)[C@H](Cc2c[nH]c3ccccc23)NC(=O)[C@H](CC(=O)O)NC(=O)[C@@H](N)CCSC)CSSC[C@@H](C(=O)N[C@@H](Cc2ccccc2)C(=O)N[C@@H](CC(N)=O)C(=O)O)NC(=O)[C@H](C(C)C)NC(=O)[C@H](Cc2c[nH]cn2)NC(=O)[C@H](Cc2c[nH]c3ccccc23)NC(=O)[C@H](CC(C)C)NC(=O)[C@H](Cc2c[nH]cn2)NC1=O [Peptide-32]	0.00295
CC[C@H](C)[C@@H]1NC(=O)[C@@H]2CCCN2C(=O)[C@@H](NC(=O)[C@H](Cc2c[nH]c3ccccc23)NC(=O)[C@H](CC(=O)O)NC(=O)[C@@H](N)CCSC)CSSC[C@@H](C(=O)N[C@@H](Cc2ccccc2)C(=O)N[C@@H](CC(N)=O)C(=O)O)NC(=O)[C@H](CCC(=O)O)NC(=O)[C@H](CO)NC(=O)[C@H](Cc2c[nH]c3ccccc23)NC(=O)[C@H](CC(C)C)NC(=O)[C@H](Cc2ccc(O)cc2)NC1=O [Peptide-33]	0.00153
CC[C@H](C)[C@@H]1NC(=O)[C@H](CC(=O)O)NC(=O)[C@H](CCCCN)NC(=O)[C@@H]2CCCN2C(=O)[C@@H](NC(=O)[C@H](Cc2c[nH]c3ccccc23)NC(=O)[C@H](CC(N)=O)NC(=O)[C@@H](N)CCSC)CSSC[C@@H](C(=O)N[C@@H](Cc2ccccc2)C(=O)N[C@@H](CC(N)=O)C(=O)O)NC(=O)[C@H](CC(C)C)NC(=O)[C@H](Cc2ccc(O)cc2)NC(=O)[C@H](Cc2c[nH]c3ccccc23)NC1=O [Peptide-34]	0.00684
CSCC[C@@H]1NC(=O)[C@H](Cc2c[nH]cn2)NC(=O)[C@H](CC(C)C)NC(=O)[C@@H]2CCCN2C(=O)[C@@H](NC(=O)[C@H](Cc2c[nH]c3ccccc23)NC(=O)[C@H](CC(=O)O)NC(=O)[C@@H](N)CCSC)CSSC[C@@H](C(=O)N[C@@H](Cc2ccccc2)C(=O)N[C@@H](CO)C(=O)O)NC(=O)[C@H](CCC(=O)O)NC(=O)[C@H](Cc2c[nH]cn2)NC(=O)[C@H](Cc2c[nH]c3ccccc23)NC1=O [Peptide-35]	0.00497

Test system: anti-CD28 scFv
Assay: Phage binding ELISA (panning) of clonal phage on anti-CD28 scFv, with or without CD28 soluble protein
Settings: clonal phage supernatant; background (no anti-CD28 scFv signal)
How it was run: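 Wells pre-incubated with blocking buffer plus CD28 soluble protein or blocking buffer alone, then crude clonal phage supernatants added without washing for a short incubation. After washing, bound phage detected with HRP-conjugated anti-M13 antibody.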

Compound	Phage binding ELISA Backgroud signal
Phage-401 (MDWCPLDMWVLCFA)	0.085
Phage-402 (MDWCPRHMWHECFH)	0.067
Phage-403 (MSWCPWDMWNECFA)	0.069
Phage-404 (MDWCPRDMWTSCFN)	0.100
Phage-405 (MDWCPMSMWAFCFD)	0.102
Phage-406 (MNWCPIDMWTECFN)	0.245
Phage-407 (MNWCPIHMWNQCFA)	0.085
Phage-408 (MFWCPKDMWAECFA)	0.099
Phage-409 (LHWCPITMWTYCYY)	0.229
Phage-410 (IDWCPRYMWHECFF)	0.098
Phage-411 (MSWCPRFMWHECFN)	0.081
Phage-412 (QHWCPRDMWNDCYA)	0.066
Phage-413 (MDWCPSDMWSNCFN)	0.070
Phage-414 (LYWCPRDMWAYCYS)	0.068
Phage-415 (MDWCPMYMWHKCFH)	0.099
Phage-417 (IYWCPTAMWNRCSA)	0.086
Phage-418 (MYWCPKYMWSECFA)	0.072
Phage-419 (VDWCPAHMWNECYN)	0.208
Phage-420 (MFWCPSTMWNRCFD)	0.063
Phage-422 (MYWCPINMWDYCYA)	0.122
Phage-423 (INLCPTPMWNRCWL)	0.119
Phage-424 (ITQCPSTMWNRCSV)	0.067
Phage-425 (MDLCPTAMWNRCFY)	0.063
Phage-426 (MFLCPSAMWNRCFY)	0.069

Compound	Phage binding ELISA Backgroud signal
Phage-427 (VILCPTTMWNRCFH)	0.100
Phage-428 (MNWCPSTMWNRCLT)	0.067
Phage-430 (IHLCHWVPWIKCSH)	2.516
Phage-431 (MAWCPADQWHECFN)	0.076
Phage-432 (IDWCPIIQGLPCFA)	0.058
Phage-433 (MAWCPWAQFDECLA)	0.073
Phage-434 (IVWCPTTQWNRCAT)	0.113
Phage-435 (MDWCPRDRWVDCYA)	0.157
Phage-436 (MDWCPRDRWADCFN)	0.063
Phage-437 (MDWCPVDRWADCFN)	0.071
Phage-438 (MDWCPMSRWAFCFD)	0.071
Phage-439 (MDWCPRDRWDVCFA)	0.073
Phage-440 (MDWCPRDRWVDCFN)	0.106
Phage-441 (MDWCPRDRWDDCFF)	0.114
Phage-442 (IYWCPIDRWNDCYN)	0.177
Phage-443 (MDWCPMTRWNDCYF)	0.081
Phage-444 (VNQCTRYRWAECLN)	0.465
Phage-445 (MDWCPRARWHDCFF)	0.097
Phage-446 (MDWCPRDRWDDCFN)	0.069
Phage-448 (MAWCPWASFDECLA)	0.104
Phage-449 (MVDCPLISFDECLA)	0.246
Phage-450 (EDWCPTDVWPYCFS)	0.100
Phage-451 (MDWCPRFWWHECYA)	0.246
Phage-452 (MDWCPRDWWHMCFN)	0.100

Same assay, conditions: clonal phage supernatant; background signal

Compound	Phage binding ELISA Backgroud signal
Phage-453 (MDWCPSDYWYVCFA)	0.065
